Source: US20070149508A1, “Six membered heteroaromatic inhibitors targeting resistant kinase mutations” (TargeGen, Inc., priority 2005, published 2007)
Counter-ions that a name gives are not always drawn.

Legend:
Abl (T315I) = molecular target: T1, Abl (T315I) (Homo sapiens, UniProt P00519, T315I); assay: Abl (T315I) Kinase Assay (KinaseGlo luminescent detection of residual ATP); assay type: biochemical; details: Abl (T315I) IC50 (nM), Abl (T315I) (Upstate, 17 ng/well), Abltide 100 uM, ATP 500 nM, 60 minutes at 37° C.
T1 construct: purchased Upstate
Procedure: The assay was performed similarly to the Abl kinase assay. Abl (T315I) (Upstate, 17 ng/well); Abltide substrate (100 uM) and ATP (500 nM) comprised the reaction mixture. Compound was similarly diluted, and the reaction plate was incubated for 60 minutes at 37° C.

Abl kinase = Abl kinase (Homo sapiens, UniProt P00519); assay: biochemical; details: Abl IC50 (nM), Abl kinase (Invitrogen, 20 ng/well), Abltide 100 μM, ATP 500 nM, 37° C. for 60 minutes, top concentration 10 uM
Procedure: Kinase activity was assessed using luminescent detection (KinaseGlo, Promega) of residual ATP concentration in reaction mixtures containing optimized levels of kinase, substrate, ATP, compound and appropriate buffers. Kinase, substrate and ATP concentrations were determined per the supplier's recommendations. Briefly, this involved running concentration curves to select for optimal signal.
The reaction mixture (50 ul/well) consisted of Abl kinase (Invitrogen, 20 ng/well); Abltide peptide substrate (Upstate, 100 μM) and ATP (500 nM). Each compound was evaluated at a top concentration of 10 uM with 1:3 dilution steps, 10 dilution steps total. Compound was diluted into DMSO and transferred to the reaction plate, resulting in a final DMSO concentration of 2%. This amount of DMSO was determined not to interfere with the enzyme. The reaction was conducted at 37° C. for 60 minutes. The degree of inhibition was assessed using IC50 determinations, which were obtained using GraphPad Prism4.

| SMILES | IC50 (Abl (T315I)) | IC50 (Abl kinase) |
| --- | --- | --- |
| C=Cc1cnc(Nc2ccc(S(=O)(=O)N3CCNCC3)c(N3CCNCC3)c2)nc1 [N-[3-piperazin-1-yl-4-(piperazin-1-ylsulfonyl)phenyl]-5-vinylpyrimidin-2-amine trifluoroacetic acid salt] | 4640 nM | 22200 nM |
| Cc1ccc(/C=C/c2cnc(Nc3ccc(S(=O)(=O)C4CCNCC4)cc3)nc2)c2cc[nH]c12 [5-((E)-2-(7-methyl-1H-indol-4-yl)vinyl)-N-(4-(piperidin-ylsulfonyl)phenyl)pyrimidin-2-amine Hydrochloride] | 167 nM | 58 nM |
| O=C(Nc1cccc(/C=C/c2cnc(Nc3cccnc3)nc2)c1)c1cccc(C(F)(F)F)c1 [N-(3-{2-[2-(Pyridin-3-ylamino)-pyrimidin-5-yl]-vinyl}-phenyl)-3-trifluoromethyl-benzamide] | > 10000 nM | 148 nM |
| O=S(=O)(NCCO)c1ccc(Nc2ncc(/C=C/c3ccccc3)cn2)cc1N1CCNCC1 [N-(2-hydroxyethyl)-4-({5-[(E)-2-phenylvinyl]pyrimidin-2-yl}amino)-2-piperazin-1-ylbenzenesulfonamide trifluoroacetic acid salt] | 7340 nM | 406 nM |
| NC1CCN(S(=O)(=O)c2ccc(Nc3ncc(/C=C/c4cccc5[nH]ncc45)cn3)cc2)CC1 [N-{4-[(4-aminopiperidin-1-yl)sulfonyl]phenyl}-5-[(E)-2-(1H-indazol-4-yl)vinyl]pyrimidin-2-amine] | 173 nM | 5.1 nM |
| O=S(=O)(CCCN1CCCC1)c1ccc(Nc2ncc(/C=C/c3cccc4[nH]ncc34)cn2)cc1 [5-[(E)-2-(1H-indazol-4-yl)vinyl]-N-{4-[(3-pyrrolidin-1-ylpropyl)sulfonyl]phenyl}pyrimidin-2-amine] | 124 nM | 3.9 nM |
| Nc1nc2ccc(/C=C/c3cnc(Nc4ccc(S(=O)(=O)N5CCNCC5)cc4)nc3)cc2s1 [(E)-6-(2-(2-(4-(piperazin-1-ylsulfonyl)phenylamino)pyrimidin-5-yl)vinyl)benzo[d]thiazol-2-amine] | 38 nM | 40 nM |
| O=S(=O)(NCCN1CCCC1)c1ccc(Nc2ncc(/C=C/c3cccc4[nH]ccc34)cn2)cc1 [4-({5-[(E)-2-(1H-indol-4-yl)vinyl]pyrimidin-2-yl}amino)--N-[4-(2-pyrrolidin-1-ylethyl)benzenesulfonamide] | 738 nM | 26 nM |
| O=S(=O)(c1ccc(Nc2ncc(/C=C/c3ccc(O)cc3)cn2)cc1)C1CCNCC1 [4-(2-{2-[4-(Piperidine-4-sulfonyl)-phenylamino]-pyrimidin-5-yl}-vinyl)-phenol] | 32 nM | 15 nM |
| O=S(=O)(c1ccc(Nc2ncc(/C=C/c3cccc(C(F)(F)F)c3)cn2)cc1)C1CCNCC1 [5-(3-(trifluoromethyl)styryl)-N-(4-(piperidin-4-ylsulfonyl)phenyl)pyrimidin-2-amine. TFA] | 3200 nM | 565 nM |
| O=S(=O)(CCCN1CCCC1)c1ccc(Nc2ncc(/C=C/c3cccc4[nH]ccc34)cn2)cc1 [5-[(E)-2-(1H-indol-4-pyrrolidin-1-ylpropyl)sulfonyl]phenyl}pyrimidin-2-amine] | 386 nM | 13 nM |
| O=S(=O)(c1ccc(Nc2ncc(/C=C/c3ccc4c(c3)CC/C4=N/O)cn2)cc1)C1CCNCC1 [5-(2-{2-[4-(Piperidine-4-sulfonyl)-phenylaminol]-pyrimidin-5-yl}-vinyl)-indan-1-one oxime] | 1800 nM | 2420 nM |
| C(=C\c1cccc2[nH]ccc12)/c1cnc(Nc2ccc(C3CCNCC3)cc2)nc1 [{5-[2-(1H-Indol-4-yl)-vinyl]-pyrimidin-2-yl}-(4-piperidin-4-yl-phenyl)-amine] | 1320 nM | 42 nM |
| O=S(=O)(c1ccc(Nc2ncc(/C=C/c3ccnc4[nH]ccc34)cn2)cc1)C1CCNCC1 [N-[4-(piperidin-4-ylsulfonyl)phenyl]-5-[(E)-2-(1H-pyrrolo[2,3-b]pyridin-4-yl)vinyl]pyrimidin-2-amine] | 163 nM | 38 nM |
| Nc1nc2ccc(/C=C/c3cnc(Nc4ccc(S(=O)(=O)NC5CCNCC5)cc4)nc3)cc2s1 [4-{5-[2-(2-Amino-benzothiazol-6-yl)-vinyl]-piperidin-4-yl-benzenesulfonamide] | 29 nM | 47 nM |
| O=S(=O)(c1ccc(Nc2ncc(/C=C/c3cccc4[nH]ccc34)cn2)cc1)N(CCO)C1CCNCC1 [N-(2-hydroxyethyl)-4-({5-[(E)-2-(1H-indol-4-yl)vinyl]pyrimidin-2-yl}amino)-N-piperidin-4-ylbenzenesulfonamide] | 728 nM | 430 nM |
| CN1CCC(S(=O)(=O)c2ccc(Nc3ncc(/C=C/c4cccc5[nH]ncc45)cn3)cc2)CC1 [N-(4-(1-methylpiperidin-4-ylsulfonyl)phenyl)-5-((E)-2-(1H-indazol-4-yl)vinyl)pyrimidin-2-amine] | 2040 nM | 32 nM |
| Oc1ccc(Cl)c(/C=C/c2cnc(Nc3ccc(OCCN4CCCC4)cc3)nc2)c1 [3-((E)-2-(2-(4-(2-(pyrrolidin-1-yl)ethoxy)phenylamino)pyrimidin-5-yl)vinyl)-4-chlorophenol hydrochloride] | 972 nM | 13 nM |
| N=C(N)c1cccc(/C=C/c2cnc(Nc3ccc(S(=O)(=O)C4CCNCC4)cc3)nc2)c1 [3-(2-{2-[4-(Piperidine-4-sulfonyl)-phenylamino]-pyrimidin-5-yl}-vinyl)-benzamidine] | 53000 nM | 3670 nM |
| O=S(=O)(c1ccc(Nc2ncc(/C=C/c3ccc(-c4c[nH]cn4)cc3)cn2)cc1)N1CCNCC1 [(5-{2-[4-(1H-Imidazol-4-yl)-phenyl]-vinyl}-pyrimidin-2-yl)-[4-(piperazine-1-sulfonyl)-phenyl]-amine] | 5040 nM | 2860 nM |
| O=S(=O)(c1ccc(Nc2ncc(/C=C/c3cc(C(F)(F)F)cc4[nH]cnc34)cn2)cc1)C1CCNCC1 [5-((E)-2-(6-(trifluoromethyl)-1H-benzo[d]imidazol-4-yl)vinyl)-N-(4-(piperidin-4-ylsulfonyl)phenyl)pyrimidin-2-amine.] | 666 nM | 245 nM |
| Nc1nc2ccc(/C=C/c3cnc(Nc4ccc(S(=O)(=O)N5CCNCC5)c(NCCO)c4)nc3)cc2s1 [2-{[5-({5-[(E)-2-(2-amino-1,3-benzothiazol-6-yl)vinyl]pyrimidin-2-yl}amino)-2-(piperazin-1-ylsulfonyl)phenyl]amino}ethanol] | 156 nM | 154 nM |
| O=S(=O)(c1ccc(Nc2ncc(/C=C/c3cccc4[nH]ncc34)cn2)cc1N1CCNCC1)N1CCNCC1 [5-[(E)-2-(1H-indazol-4-yl)vinyl]-N-[3-piperazin-1-yl-4-piperazin-1-ylsulfonyl)phenyl]pyrimidin-2-amine] | 336 nM | 20 nM |
| O=S(=O)(c1ccc(Nc2ncc(/C=C/c3cccc4[nH]ccc34)cn2)cc1)N1CCNCC1 [5-[(E)-2-(1H-indol-4-yl)vinyl]-N-{4-(piperazin-1-ylsulfonyl)phenyl]pyrimidin-2-amine] | 450 nM | 22 nM |
| O=S(=O)(c1ccc(Nc2ncc(/C=C/c3cccc(O)c3)cn2)cc1)N1CCC(CO)CC1 [3-(2-{2-[4-(4-Hydroxymethyl-piperidine-1-sulfonyl)-phenylamino]-pyrimidin-5-yl}-vinyl)-phenol] | 225 nM | 22 nM |
